Laboratory results reported in patent US4588587A, “Method of treatment to inhibit metastasis” (Pennsylvania Hospital, priority 1983, dated 1986).

System: T241 sarcoma cells
Assay: Lung and mediastinal tumor colonization after intravenous injection of T241 sarcoma cells
Format: in vivo, mice
Procedure: Sarcoma T241 (12), a dimethylbenzanthracene-induced tumor originally derived from a C57BL/6 mouse, was maintained as ascitic tumor in syngeneic C57BL/6 mice or B6AF1 compatible hybrids (Jackson Laboratory, Bar Harbor, Me.). The capacity of the cells of this tumor to induce platelet aggregation and coagulation was assayed in a conventional manner. […] The tumor cells, however, did display a moderate procoagulant activity as reflected by a shortened recalcified clotting time. The addition of 10^6 T241 cells to syngeneic citrated plasma reduced the clotting time to between 1/3 and 1/2 control levels. Another known property of these cells is the capacity to degrade type IV collagen.
Lung tumor colonies were induced by the intravenous injection of T241 sarcoma cells. One week-old ascitic tumor cells were separated by centrifugation (100 g for 10 min) at 4° C., washed twice with Hanks' solution and suspended in the same medium (125,000-250,000 cells per ml). The suspension contained monodispersed cells of high viability (95%). Two tenths of one ml of the suspension containing 25,000 or 50,000 cells were injected intravenously into male or female C57BL/6 mice (about 25 g), and into B6AF1 mice (25-30 g), respectively, the animals housed under identical conditions of temperature, photoperiodicity, and feeding, were killed 20 days later and the number of metastases counted with a Bausch & Lomb dissecting microscope.
Two tenths of one ml of extract or semipurified fractions (100-400 ug of protein) were injected intravenously through the tail vein two hours before and two and four hours after receiving the tumor cell inoculation. Controls were similarly injected, but with 20 mM Hepes, 10 mM CaCl2, pH 7.8 aqueous solution. Additional controls were treated with either one intravenous injection of 15 units of heparin (Elkins-Sinn, Cherry Hill, N.J.) or 2 units of Bothrops atrox venom (Atroxin, Sigma, St. Louis, Mo.) in 0.2 ml of saline given 1 hour before tumor inoculation.

[1] = C57BL/6J mice, T241 cells i.v., killed 20 days later

For heparin, the “Percentage of Mice with Tumors, Lung” value [1] was 100 Percentage, the “Percentage of Mice with Tumors, Mediastinal” value [1] was 80 Percentage and the “Lung Tumors per Mouse, Median” value (C57BL/6J mice, excluding mice without lung tumors) was 5. The “Diameter of Lung Tumors” value (C57BL/6J mice, mean and S.E.M., excluding mice without lung tumors) was 2.2 ± 0.1 mm, the “antimetastatic effect on lung and mediastinal tumors (in words)” value (T241 sarcoma cells i.v. in mice) was “reduced only slightly” and the “antimetastatic effect at much higher doses given more frequently” value (compared with the extract) was “could not be reproduced”.
